Assay results taken from patent US6688468B2, “Pharmaceutical kit for oxygen-sensitive drugs” (Pfizer Inc., priority 2001, dated 2004).

Test: 18-week stability of Compound I tablets packaged in 60 cc HDPE bottles with HIS; degradation products by HPLC
Type: physicochemical
Settings: Initial bulk, 0 weeks
Procedure: In an initial evaluation of oxygen absorbers, the bottles were sealed with heat induction seals (HIS). The following samples were prepared by placing the following materials in a round HDPE bottle (60 cc capacity) and sealing with a heat-induction seal:
Tablets were stored eighteen weeks under three different conditions: (1) 5° C./75% relative humidity (RH); (2) 40° C./75% RH; and (3) 50° C./20% RH. Air in the bottles was sampled using a gas tight syringe equipped with a septum seal as the foil was punctured. The sampled air was analyzed using a Mocon™ headspace analyzer (PAL Model 450 available from Mocon™ Inc., Minneapolis, Minn.). Each tablet was dissolved in 250 ml of a solution prepared by dissolving 21.6 g of octane sulfonic acid and 6.8 g of potassium phosphate in 1.0 liters of purified water and adjusting the pH to 3 with phosphoric acid followed by the addition of 818 mL of acetonitrile. Degradation products were identified by high pressure liquid chromatography (HPLC) (Waters sym C8 column, 15 cm×3.9 mm, nylon acrodisc filter, HPLC HP 1100 series, 20 μl injection volume, flow of 1 mL/min). The degradation products were compared against three known standards (Compounds I-1A′, I-1A″ and I-1B).

Compound: COc1ccc(C(C)C)cc1CN[C@@H]1C2CCN(CC2)[C@@H]1C(c1ccccc1)c1ccccc1 [Compound I]
- I-1A′: 0.000 Wt %
- I-1A″: 0.300 Wt %
- I-1B: 0.027 Wt %
- Total: 0.37%
- Unknown (first Unknown column): 0.01 Area %
- Unknown (second Unknown column): 0.03 Area %
